Source: PubChem BioAssay AID276 (DTP/NCI, 2004)
Values joined by “and” are separate entries in the source; they are usually repeats but may differ in a detail not shown here. Equal entries are not always repeated. Toxic doses and inconclusive results are not listed. The calls were made as follows: active = survival T/C of 150% or more; inactive = T/C below 125% in these data.

Tested on: B6C3F1 mice, Lewis lung carcinoma iv, survival T/C
Experiment: NCI In Vivo Anticancer Drug Screen. Data for tumor model Lewis Lung Carcinoma (intravenous) in B6C3F1 mice
Conditions: endpoint: median survival time, schedule: Q01DX009 (ip), higher = longer survival
How it was run: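 Mice carrying transplanted tumors received test compound; survival in the treated group was divided by that of the vehicle-treated control group to give the T/C value.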

[1] = dose: 62.5 micrograms/kg/injection, vehicle: saline
[2] = dose: 125.0 micrograms/kg/injection, vehicle: saline
[3] = dose: 250.0 micrograms/kg/injection, vehicle: saline
[4] = dose: 12.5 mg/kg/injection, vehicle: saline with Tween-80
[5] = dose: 25.0 mg/kg/injection, vehicle: saline with Tween-80
[6] = dose: 50.0 mg/kg/injection, vehicle: saline with Tween-80
[7] = dose: 100.0 mg/kg/injection, vehicle: saline with Tween-80
[8] = dose: 200.0 mg/kg/injection, vehicle: saline with Tween-80

Measured: T/C

CC(=O)OC1(C)CC(C)C(=O)C(C(O)CC2CC(=O)NC(=O)C2)C1 (stereo not drawn)
inactive: dose: 15.6 micrograms/kg/injection, vehicle: saline 96 % of control | dose: 31.3 micrograms/kg/injection, vehicle: saline 95 % of control | [1] 100 % of control | [2] 100 % of control | [3] 107 % of control

C/C=C(\C)c1cc(=O)c2c(C)cc3c(c2o1)C(=O)c1c(O)c(C2CC(C)(N(C)C)C(O)C(C)O2)cc(C2CC(N(C)C)C(O)C(C)O2)c1C3=O (stereo not drawn)
inactive: dose: 31.25 micrograms/kg/injection, vehicle: saline 98 % of control | [1] 101 % of control | [2] 101 % of control | [3] 98 % of control

COc1cc(Cl)ccc1C
inactive: [4] 102 % of control | [5] 98 % of control | [6] 100 % of control | [7] 97 % of control | [8] 97 % of control

CC(=O)C1=C(O)C2(O)C(=O)c3c(c(C)c4ccc(C)c(O)c4c3O)CC2C(N)C1=O (stereo not drawn)
inactive: dose: 3.75 mg/kg/injection, vehicle: saline + alcohol 95 % of control and 105 % of control | dose: 7.3 mg/kg/injection, vehicle: saline + alcohol 102 % of control | dose: 7.5 mg/kg/injection, vehicle: saline + alcohol 95 % of control | dose: 15.0 mg/kg/injection, vehicle: saline + alcohol 102 % of control and 107 % of control | dose: 30.0 mg/kg/injection, vehicle: saline + alcohol 98 % of control and 107 % of control | dose: 60.0 mg/kg/injection, vehicle: saline + alcohol 102 % of control and 110 % of control | dose: 120.0 mg/kg/injection, vehicle: saline + alcohol 112 % of control

NCCCNCCSP(=O)(O)O
inactive: [4] 98 % of control | [5] 98 % of control | [6] 95 % of control | [7] 106 % of control | [8] 105 % of control

CC1=NN(c2cccc(S(=O)(=O)O)c2)C(=O)C1N=Nc1cc(Cl)cc(S(=O)(=O)O)c1O.CC1=NN(c2cccc(S(=O)(=O)O)c2)C(=O)C1N=Nc1cc(Cl)cc(S(=O)(=O)O)c1O.[Cr] (stereo not drawn)
inactive: dose: 25.0 mg/kg/injection, vehicle: saline 92 % of control | dose: 50.0 mg/kg/injection, vehicle: saline 100 % of control | dose: 100.0 mg/kg/injection, vehicle: saline 98 % of control | dose: 200.0 mg/kg/injection, vehicle: saline 98 % of control

CCN1/C(=C/C=C/C=C\C=C\c2sc3ccc4ccccc4c3[n+]2CC)Sc2ccc3ccccc3c21
inactive: dose: 1.25 mg/kg/injection, vehicle: saline with Tween-80 104 % of control | dose: 2.5 mg/kg/injection, vehicle: saline with Tween-80 100 % of control and 103 % of control | dose: 5.0 mg/kg/injection, vehicle: saline with Tween-80 104 % of control | dose: 10.0 mg/kg/injection, vehicle: saline with Tween-80 98 % of control | dose: 20.0 mg/kg/injection, vehicle: saline with Tween-80 103 % of control

CN=S(=O)(OCCCCCOS(=O)(=NC)c1ccc(C)cc1)c1ccc(C)cc1 (stereo not drawn)
inactive: dose: 6.25 mg/kg/injection, vehicle: saline with Tween-80 99 % of control | [4] 99 % of control | [5] 91 % of control | [6] 94 % of control | [7] 92 % of control | [8] 96 % of control

O=c1[nH]cc(F)c(=O)[nH]1
inactive: dose: 5.0 mg/kg/injection, vehicle: saline 105 % of control | dose: 10.0 mg/kg/injection, vehicle: saline 97 % of control and 102 % of control | dose: 20.0 mg/kg/injection, vehicle: saline 107 % of control

CCCCCCCC(=O)OCC(=O)[C@]1(O)Cc2c(O)c3c(c(O)c2[C@@H](OC2CC(N)C(O)C(C)O2)C1)C(=O)c1c(OC)cccc1C3=O (stereo partly drawn)
inactive: dose: 1.0 mg/kg/injection, vehicle: saline 102 % of control | dose: 1.0 mg/kg/injection, vehicle: suspension in saline 120 % of control | dose: 2.0 mg/kg/injection, vehicle: saline 124 % of control | dose: 2.0 mg/kg/injection, vehicle: suspension in saline 112 % of control
